Results on 54 compounds are retold here after patent US12030875B2, “EIF4E inhibitors and uses thereof” (PIC Therapeutics, Inc., priority 2018, dated 2024).

Molecules are shown by their SMILES.

This assay deals with T1, Human eIF4E (Homo sapiens, UniProt P06730).
T1 construct: Human eIF4E (aa 28-217) with a C-terminal His-tag; made in house
T1 sequence (P06730 28-217): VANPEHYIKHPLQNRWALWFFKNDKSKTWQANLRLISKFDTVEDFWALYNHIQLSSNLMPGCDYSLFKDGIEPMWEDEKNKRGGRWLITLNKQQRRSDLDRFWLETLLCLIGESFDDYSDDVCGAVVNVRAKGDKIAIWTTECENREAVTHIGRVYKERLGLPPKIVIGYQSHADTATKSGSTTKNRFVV
Nature of the assay: Human eIF4E/4G2 binding assay (TR-FRET). The note with it: eIF4E (aa 28-217) with biotin labeled 4G2 peptide. As for the experimental part:
Human eIF4E (aa 28-217) with a C-terminal His-tag was expressed in E. coli in inclusion bodies. The protein was solubilized with 8 M urea and purified under denaturing conditions using nickel-charged HisTrap HP columns (GE Healthcare). The purified protein was then refolded by diluting in 20 mM Hepes pH 7.0, 0.5 M NaCl, 1 mM DTT, 1 mM EDTA, 0.5 M arginine plus 6 M urea, and then dialyzing overnight into the same buffer without the urea. The protein was further dialyzed into 20 mM Hepes, pH 6.5, 50 mM NaCl, 1 mM EDTA, 1 mM DTT, and concentrated using Hitrap SP sepharose FF columns (GE Healthcare). The concentrated protein was dialyzed into 20 mM Hepes, pH 7.0, 0.5M NaCl, 5 mM DTT and 10% glycerol, and stored at −80° C. until use.
Test compounds (3.43 mM stock in DMSO) were diluted 2-fold in series in DMSO (10 concentration points). Compound solutions (1.2 μl/well) were added into black 384-well polypropylene microplates (Matrix, Thermal Scientific). Twenty-two microliters per well of Assay Buffer (50 mM NaPi, pH 6.5, 50 mM KCl, 1 mM DTT and 0.5 mg/ml gamma globulin) and eight microliters per well of 82.5 nM purified eIF4E in Assay Buffer were added. The samples were incubated at room temperature (20-23° C.) for 15 min. Biotin labeled 4G2 peptide (Ac-Lys-Gln-Tyr-Asp-Arg-Glu-Phe-Leu-Leu-Asp-Phe-Gln-Phe-Met-Pro-Lys(Aha-Bio)-NH2, 1.75 μM stock in DMSO) was diluted to 0.14 μM in Assay Buffer (without DTT) and 5 μl/well was added. The samples were incubated at room temperature for 15 min. Five microliters per well of 6.4 nM Eu-streptavidin (Eu-SA, Perkin Elmer) and 80 nM Allophycocyanin (APC)-anti His antibody (Columbia Biosciences) in Assay Buffer (without DTT) were then added and the samples were incubated at room temperature for 20 min.
Assay signals were monitored by reading excitation at 340 nm and emission fluorescence at 615 nm and 665 nm on an Envision reader (Perkin Elmer). Normalized TR-FRET (time-resolved fluorescence resonance energy transfer) assay signal (Rn) was calculated by the formula: Rn═[(A−Ba−C×D)/(D−Bd)]×(Dc−Bd) • Where A is the fluorescence intensity of the sample at 665 nm, • D is the fluorescence intensity of the sample at 615 nm, • Ba and Bd are plate backgrounds at 665 nm and 615 nm, respectively, • Dc is the fluorescence intensity of 0.78 nM Eu-SA in the assay buffer at 615 nm • The cross-talk factor (C) is determined by the following formula: C=(Ac−Ba)/(Dc−Bd) • Where Ac is the fluorescence intensity of 0.78 nM Eu-SA in the assay buffer at 665 nm.
IC50 values were calculated using xLFit program (IDBS).
For orientation: Time-resolved FRET reads energy transfer from a long-lived donor to a nearby acceptor.
By IC50 is commonly meant the midpoint of a concentration-inhibition curve. The low end stands for greater potency, the high end for weaker potency. Regarding `O=C(O)C1CN(c2nc(-c3ccc(-c4ccc(F)cc4)cc3)cs2)C1` [Compound I-76], the 50% inhibitory concentration (IC50) was > 25 µM.
For the compound `CCCC(CNc1nc(-c2ccc(-c3ccc(F)cc3)cc2)c(-c2cccc3[nH]ccc23)s1)C(=O)O` (stereo not drawn) [Compound I-92], the IC50 fell in the range of 5 to 25 µM.
The same measure for `CC1(C(=O)O)CN(c2nc(-c3ccc(Oc4ccccc4)cc3)c(-c3cccnc3)s2)C1` [Compound I-165]: > 25 µM; for `CC1(C(=O)O)CCCN(c2nc(-c3ccc(Oc4ccccc4)cc3)c(-c3cncnc3)s2)C1` (stereo not drawn) [Compound I-218]: > 25 µM.
The same measure for `CC(C)C(CC(=O)O)Nc1nc(-c2ccc(-c3ccc(F)cc3)cc2)c(Br)s1` (stereo not drawn) [Compound I-65]: 5 to 25 µM; for `O=C(O)C1CCCN(c2nc(-c3ccc(Oc4ccccc4)cc3)cs2)C1` (stereo not drawn) [Compound I-181]: > 25 µM; for `O=C(O)C1CCN(c2nc(-c3ccc(-c4cnco4)cc3)c(-c3cncnc3)s2)C1` (stereo not drawn) [Compound I-41]: > 25 µM.
For `O=C(O)C1CN(c2nc(-c3ccc(Oc4ccccc4)cc3)c(-c3ccccc3)s2)CCO1` (stereo not drawn) [Compound I-213] the value was < 5 µM; for `CC(CC(=O)O)Nc1nc(-c2ccc(-c3cnco3)cc2)c(-c2cccc3[nH]ccc23)s1` (stereo not drawn) [Compound I-25], > 25 µM.
Consider `O=C(O)C1CN(c2nc(-c3ccc(Oc4ccccc4)cc3)c(-c3ccccc3)s2)C1` [Compound I-158], for which the IC50 is < 5 µM.
For `O=C(O)C1CN(c2nc(-c3ccc(-c4ccc(F)cc4)cc3)c(-c3cncnc3)s2)C1` [Compound I-78] the value was > 25 µM.
The same measure for `O=C(O)CCc1nc(-c2ccc(-c3ccc(F)cc3)cc2)c(C(F)(F)F)s1` [Compound I-235, 3-(4-(4′-fluorobiphenyl-4-yl)-5-(trifluoromethyl)-thiazol-2-yl)-propanoic acid]: 5 to 25 µM.
For `CC(C)C(CC(=O)O)Nc1nc(-c2cncnc2)c(-c2ccc(-c3cnco3)cc2)s1` (stereo not drawn) [Compound I-2], the IC50 was > 25 µM.
The same measure for `CC(CC(=O)O)Nc1nc(-c2ccc(-c3ccc(F)cc3)cc2)cs1` (stereo not drawn) [Compound I-93]: > 25 µM.
The same measure for `O=C(O)C1(CNc2nc(-c3ccc(Oc4ccccc4)cc3)c(-c3ccccc3)s2)CC1` [Compound I-196]: < 5 µM; for `O=C(O)CC1CCCN1c1nc(-c2ccc(-c3cnco3)cc2)cs1` (stereo not drawn) [Compound I-35]: > 25 µM; for `CC(C)(CNc1nc(-c2ccc(Oc3ccccc3)cc2)c(-c2cncnc2)s1)C(=O)O` [Compound I-155]: > 25 µM.
`O=C(O)C1CCN(c2nc(-c3ccc(Oc4ccccc4)cc3)c(-c3ccccc3)s2)C1` (stereo not drawn) [Compound I-191]: the IC50 was < 5 µM.
For `O=C(O)C1CCN(c2nc(-c3ccc(-c4ccc(F)cc4)cc3)c(-c3ccccc3)s2)C1` (stereo not drawn) [Compound I-116] the value was < 5 µM; for `O=C(O)C1CN(c2nc(-c3ccc(-c4ccc(F)cc4)cc3)c(-c3cccc4[nH]ccc34)s2)C1` [Compound I-80], 5 to 25 µM; for `O=C(O)C1CCN(c2nc(-c3ccc(-c4cnco4)cc3)c(-c3cccc4[nH]ccc34)s2)C1` (stereo not drawn) [Compound I-43], > 25 µM.
For `CC1(C(=O)O)CN(c2nc(-c3ccc(-c4cnco4)cc3)c(-c3cccc4[nH]ccc34)s2)C1` [Compound I-16] the value was > 25 µM.
The same measure for `O=C(O)C1(CNc2nc(-c3ccc(Oc4ccccc4)cc3)cs2)CC1` [Compound I-195]: > 25 µM; for `O=C(O)C1(CNc2nc(-c3ccc(-c4ccc(F)cc4)cc3)c(-c3ccccc3)s2)CC1` [Compound I-122]: < 5 µM; for `CC(CNc1nc(-c2ccc(-c3cnco3)cc2)c(-c2cncnc2)s1)C(=O)O` (stereo not drawn) [Compound I-28]: > 25 µM.
With `CCCC(CNc1nc(-c2ccc(Oc3ccccc3)cc2)c(-c2cccc3[nH]ccc23)s1)C(=O)O` (stereo not drawn) [Compound I-171], the IC50 fell in the range of 5 to 25 µM.
The compound `CCCC(CNc1nc(-c2ccc(-c3cnco3)cc2)c(-c2ccccc2)s1)C(=O)O` (stereo not drawn) [Compound I-18] yielded a 50% inhibitory concentration (IC50) of 5 to 25 µM.
The same measure for `CC(C)(CNc1nc(-c2ccc(Oc3ccccc3)cc2)c(-c2cccc3[nH]ccc23)s1)C(=O)O` [Compound I-157]: 5 to 25 µM; for `O=C(O)C1CCCN(c2nc(-c3ccc(Oc4ccccc4)cc3)c(-c3cncnc3)s2)C1` (stereo not drawn) [Compound I-183]: > 25 µM; for `O=C(O)[C@H]1CCCN(c2nc(-c3ccc(-c4ccc(F)cc4)cc3)c(-c3ccccc3)s2)C1` [Compound I-224]: < 5 µM.
The same measure for `CC(C)(CNc1nc(-c2ccc(-c3cnco3)cc2)c(-c2cccc3[nH]ccc23)s1)C(=O)O` [Compound I-8]: > 25 µM; for `O=C(O)C1CCN(c2nc(-c3ccc(Oc4ccccc4)cc3)c(-c3ccccc3)s2)CC1` [Compound I-209]: < 5 µM; for `O=C(O)C1(CNc2nc(-c3ccc(Oc4ccccc4)cc3)c(-c3cncnc3)s2)CC1` [Compound I-197]: > 25 µM.
The same measure for `O=C(O)C1CN(c2nc(-c3ccc(-c4cnco4)cc3)c(-c3cccc4[nH]ccc34)s2)CCO1` (stereo not drawn) [Compound I-59]: > 25 µM.
Consider `O=C(O)CC1CCCN1c1nc(-c2ccc(-c3cnco3)cc2)c(-c2cccc3[nH]ccc23)s1` (stereo not drawn) [Compound I-39], for which the IC50 was > 25 µM.
The same measure for `CC1(C(=O)O)CN(c2nc(-c3ccc(-c4cnco4)cc3)c(-c3ccccc3)s2)C1` [Compound I-13]: > 25 µM; for `O=C(O)C1CCN(c2nc(-c3ccc(Oc4ccccc4)cc3)c(-c3cccnc3)s2)CC1` [Compound I-211]: > 25 µM; for `O=C(O)C1CCN(c2nc(-c3ccc(-c4ccc(F)cc4)cc3)c(-c3ccccc3)s2)CC1` [Compound I-136]: < 5 µM.
Regarding `O=C(O)C1CC(CNc2nc(-c3ccc(Oc4ccccc4)cc3)c(-c3cncnc3)s2)C1` (stereo not drawn) [Compound I-202], the IC50 was > 25 µM.
On to `CC1(C(=O)O)CN(c2nc(-c3ccc(-c4ccc(F)cc4)cc3)c(-c3ccccc3)s2)C1` [Compound I-83], for which the IC50 is < 5 µM.
The same measure for `O=C(O)CC1CCCN1c1nc(-c2ccc(-c3ccc(F)cc3)cc2)cs1` (stereo not drawn) [Compound I-110]: > 25 µM; for `CC1(C(=O)O)CCCN(c2nc(-c3ccc(Oc4ccccc4)cc3)c(-c3ccccc3)s2)C1` (stereo not drawn) [Compound I-217]: < 5 µM; for `CC(C)C(CC(=O)O)Nc1nc(-c2ccc(-c3ccc(F)cc3)cc2)c(-c2cccc3[nH]ccc23)s1` (stereo not drawn) [Compound I-69]: 5 to 25 µM.
The same measure for `O=C(O)CC1CCCN1c1nc(-c2ccc(-c3ccc(F)cc3)nc2)c(-c2cncnc2)s1` (stereo not drawn) [Compound I-112]: > 25 µM; for `CC(C)C(CC(=O)O)Nc1nc(-c2ccc(-c3ccc(F)cc3)cc2)c(-c2ccccc2)s1` (stereo not drawn) [Compound I-66]: < 5 µM; for `CC(C)C(CC(=O)O)Nc1nc(-c2ccc(Oc3ccccc3)cc2)c(-c2cccc3[nH]ccc23)s1` (stereo not drawn) [Compound I-152]: 5 to 25 µM.
In the case of `CCCC(CNc1nc(-c2cncnc2)c(-c2ccc(-c3cnco3)cc2)s1)C(=O)O` (stereo not drawn) [Compound I-19], the IC50 is > 25 µM.
`CCCC(CNc1nc(-c2ccc(-c3ccc(F)cc3)cc2)c(Br)s1)C(=O)O` (stereo not drawn) [Compound I-88] displayed a half-inhibitory concentration (IC50) of 5 to 25 µM.
The same measure for `O=C(O)C1CN(c2nc(-c3ccc(-c4ccc(F)cc4)cc3)c(-c3ccccc3)s2)CCO1` (stereo not drawn) [Compound I-140]: < 5 µM.
The same measure for `CC(C)C(CC(=O)O)Nc1nc(-c2ccc(Oc3ccccc3)cc2)c(-c2ccccc2)s1` (stereo not drawn) [Compound I-149]: 5 to 25 µM; for `CC(CNc1nc(-c2ccc(-c3ccc(F)cc3)cc2)c(-c2ccccc2)s1)C(=O)O` (stereo not drawn) [Compound I-101]: 5 to 25 µM.
For `O=C(O)CC1CCCN1c1nc(-c2ccc(Oc3ccccc3)cc2)c(-c2ccccc2)s1` (stereo not drawn) [Compound I-186] the value was < 5 µM; for `O=C(O)C[C@H]1CCCN1c1nc(-c2ccc(-c3ccc(F)cc3)cc2)c(-c2ccccc2)s1` [Compound I-225], < 5 µM.
For the compound `CC(C)C(CC(=O)O)Nc1nc(-c2ccc(-c3cnco3)cc2)c(-c2cccc3[nH]ccc23)s1` (stereo not drawn) [Compound I-4], the half-inhibitory concentration (IC50) is > 25 µM.
